Here are results for 7 compounds from ChEMBL document CHEMBL1201862, “PubChem BioAssay data set” (2004).

Some test systems named below: UACC-257; HL-60; OVCAR-8; ACHN; NCI-H226; NCI-H460; MCF7; NCI/ADR-RES; UACC-62; SK-MEL-2; T47D; RPMI-8226; MDA-N; TK-10; OVCAR-5; NCI-H23; LOX IMVI; HOP-62; SN12C; SF-268.
Common to all, as to experiment: NCI anticancer screen, dose series, 48 h

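Tested at 5 concentrations; 48 h exposure; 96-well plates; endpoints linearly interpolated, else capped at highest concentration. Abbreviation: GI50, concentration required for 50% inhibition of growth.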 The source made the active and inactive calls. Cut-off read from the data, not from the text of the source: active = GI50 up to about 1.1 µM and inactive = higher.

As to `Cc1ccc(-c2cc(-c3cc(-c4ccc(C)cc4C)[nH]n3)[nH]n2)c(C)c1`, the GI50 is 12.4 µM (inactive) in the assay with UACC-257; 0.027 µM (active) in the assay with HL-60; 15 µM (inactive) in the assay on OVCAR-8; 11.5 µM (inactive) in the assay on ACHN; 20.5 µM (inactive) in the assay with NCI-H226; 7.93 µM (inactive) with NCI-H460. The GI50 is 15 µM (inactive) in the assay on MCF7; 18.9 µM (inactive) in the assay on NCI/ADR-RES; 24.8 µM (inactive) in the assay with UACC-62; 18.2 µM (inactive) with SK-MEL-2; 15 µM (inactive) in the assay on T47D; 2.66 µM (inactive) in the assay with RPMI-8226. The GI50 is 14.9 µM (inactive) in the assay with MDA-N; 15.6 µM (inactive) with TK-10; 23.7 µM (inactive) in the assay with OVCAR-5; 19.8 µM (inactive) with NCI-H23; 19.9 µM (inactive) in the assay on LOX IMVI; 13.9 µM (inactive) in the assay with HOP-62. Also, the GI50 is 15.3 µM (inactive) in the assay with SN12C and 12.5 µM (inactive) with SF-268.
Regarding `O=C(Nc1ccccc1)N(C1=NCC(CI)S1)c1ccc(F)cc1F` (stereo not drawn), the GI50 is 23.2 µM (inactive) in the assay with UACC-257; 20.1 µM (inactive) with HL-60; > 100 µM (inactive) in the assay on OVCAR-8; > 100 µM (inactive) in the assay on ACHN; 87.3 µM (inactive) in the assay with NCI-H226; 41.6 µM (inactive) in the assay on MCF7. Moreover, the GI50 is > 100 µM (inactive) with NCI/ADR-RES; 25.6 µM (inactive) in the assay with UACC-62; > 100 µM (inactive) in the assay on SK-MEL-2; 15.3 µM (inactive) in the assay with T47D; 56.2 µM (inactive) with RPMI-8226; 35.9 µM (inactive) in the assay with MDA-N. In addition, the GI50 in the assay on TK-10 was 82.8 µM (inactive); in the assay on OVCAR-5, > 100 µM (inactive); in the assay on NCI-H23 it was 50.6 µM (inactive); with LOX IMVI, 16 µM (inactive); in the assay with HOP-62, > 100 µM (inactive); with SN12C, 46.7 µM (inactive). Moreover, the GI50 with SF-268 was > 100 µM (inactive).
For `CC1(COS(=O)(=O)OCC2(C)COS(=O)(=O)OC2)COS(=O)(=O)OC1`, the GI50 was > 75 µM (inactive) with UACC-257; > 35.1 µM (inactive) with HL-60; > 48.3 µM (inactive) in the assay with OVCAR-8; > 32.3 µM (inactive) in the assay with ACHN; > 41.5 µM (inactive) with NCI-H226; > 42.3 µM (inactive) with NCI-H460. Besides, the GI50 in the assay on MCF7 is > 22.3 µM (inactive); in the assay on NCI/ADR-RES, > 48.3 µM (inactive); in the assay with UACC-62, > 61.8 µM (inactive); in the assay on SK-MEL-2, > 55.6 µM (inactive); with T47D, > 20.9 µM (inactive); in the assay on RPMI-8226, > 20.2 µM (inactive). Besides, the GI50 in the assay with MDA-N is > 72.4 µM (inactive); in the assay on TK-10 it was > 74.8 µM (inactive); with OVCAR-5 it was > 100 µM (inactive); in the assay with NCI-H23 it was > 25.8 µM (inactive); in the assay with LOX IMVI it was > 40.5 µM (inactive); in the assay with HOP-62, 62.2 µM (inactive). Further, the GI50 in the assay with SF-268 is > 100 µM (inactive).
Take `COc1ccc([C@]23CCN(S(=O)(=O)c4ccc(C)cc4)[C@H]2[C@H](CO)C2(CC3)OCC(C)(C)CO2)cc1OC`: the GI50 in the assay on UACC-257, in the assay with HL-60, in the assay on OVCAR-8, with ACHN, in the assay on NCI-H226 and with NCI-H460 was > 100 µM (inactive) each time. Besides, the GI50 in the assay on MCF7, in the assay on NCI/ADR-RES, in the assay on UACC-62, in the assay with SK-MEL-2, in the assay on T47D and in the assay on RPMI-8226 was > 100 µM (inactive) each time. The GI50 with MDA-N, with TK-10, in the assay on OVCAR-5, in the assay on NCI-H23, in the assay with LOX IMVI and in the assay with HOP-62 was > 100 µM (inactive) each time. The GI50 in the assay on SN12C is > 100 µM (inactive).
On to `Cc1c(-c2nc3ccccc3[nH]2)c(=O)n(-c2ccccc2)n1C`, for which the GI50 with UACC-257, with HL-60, with OVCAR-8, in the assay with ACHN, with NCI-H226 and in the assay with NCI-H460 was > 100 µM (inactive) each time. The GI50 in the assay with MCF7, in the assay on NCI/ADR-RES, in the assay with UACC-62, with SK-MEL-2, with T47D and in the assay with RPMI-8226 was > 100 µM (inactive) each time. Further, the GI50 with MDA-N, in the assay on TK-10, in the assay with NCI-H23, with LOX IMVI, with HOP-62 and with SN12C was > 100 µM (inactive) in each case. Besides, in the assay with SF-268, the GI50 is > 100 µM (inactive).
Consider `Cn1cc(NC(=O)Nc2cc(C(=O)Nc3cc(C(=O)Nc4ccc5cc(S(=O)(=O)O)cc(S(=O)(=O)O)c5c4)n(C)c3)n(C)c2)cc1C(=O)Nc1cc(C(=O)Nc2ccc3cc(S(=O)(=O)O)cc(S(=O)(=O)O)c3c2)n(C)c1`, for which the GI50 with UACC-257, with HL-60, in the assay on OVCAR-8, in the assay on ACHN, in the assay on NCI-H226 and in the assay on NCI-H460 was > 100 µM (inactive) each time. The GI50 with MCF7, with NCI/ADR-RES, with UACC-62, in the assay on T47D, in the assay on RPMI-8226 and in the assay with MDA-N was > 100 µM (inactive) in each case. Also, the GI50 was 83 µM (inactive) with TK-10; > 100 µM (inactive) with OVCAR-5; > 100 µM (inactive) in the assay on NCI-H23; > 100 µM (inactive) in the assay with LOX IMVI; > 100 µM (inactive) with HOP-62; > 100 µM (inactive) with SN12C. For the same compound, the GI50 in the assay on SF-268 was > 100 µM (inactive).
For the compound `O=[N+]([O-])c1cccc(-c2ncnc(-c3cccc([N+](=O)[O-])c3)n2)c1`, the GI50 is 38.7 µM (inactive) in the assay with UACC-257; 36.6 µM (inactive) in the assay on HL-60; > 100 µM (inactive) in the assay with OVCAR-8; > 100 µM (inactive) with NCI-H226; > 100 µM (inactive) in the assay on MCF7; > 100 µM (inactive) with NCI/ADR-RES. In addition, the GI50 was 27.4 µM (inactive) in the assay on UACC-62; 51.5 µM (inactive) with SK-MEL-2; 81.8 µM (inactive) in the assay on T47D; > 100 µM (inactive) with RPMI-8226; > 100 µM (inactive) in the assay on MDA-N; 44.5 µM (inactive) in the assay on TK-10. In addition, the GI50 was > 100 µM (inactive) with OVCAR-5; 58.5 µM (inactive) in the assay on NCI-H23; > 100 µM (inactive) in the assay on LOX IMVI; 17.8 µM (inactive) in the assay on HOP-62; > 100 µM (inactive) in the assay with SN12C; 54 µM (inactive) with SF-268.
